From ChEMBL document CHEMBL1140330, “Carbonic anhydrase inhibitors. Design of fluorescent sulfonamides as probes of tumor-associated carbonic anhydrase IX that inhibit isozyme IX-mediated acidification of hypoxic tumors” (J Med Chem, 2005) come the findings set out here.

pKi: −log10 of the molar value.

Among the targets are Carbonic anhydrase 1 (Homo sapiens, UniProt P00915); Carbonic anhydrase 9 (Homo sapiens, UniProt Q16790); Carbonic anhydrase 2 (Homo sapiens, UniProt P00918).
Data set [1] can be described thus: in vitro. To be noted: human, whole blood; level measured in red blood cells.
Description: Compound level in Red Blood Cells at 30 min, after exposure of 10 mL of Blood to compound solution by HPLC method
The nature of data set [2]: in vitro. To be noted: human, whole blood; level measured in red blood cells. The source holds these as a separate data set.
Description: Compound level in Red Blood Cells at 60 min, after exposure of 10 mL of Blood to compound solution by electronic spectroscopic method
The nature of data set [3]: in vitro. To be noted: human, whole blood; level measured in red blood cells. The source holds these as a separate data set.
Description: Compound level in Red Blood Cells at 60 min, after exposure of 10 mL of Blood to compound solution by HPLC method
Data set [4] can be described thus: in vitro. Particulars: human, whole blood; level measured in red blood cells. This is another data set of the same source.
Description: Compound level in Red Blood Cells at 30 min, after exposure of 10 mL of Blood to compound solution by electronic spectroscopic method
Data set [5] in a line: in vitro. To be noted: human, whole blood; level measured in red blood cells. The source holds these as a separate data set.
Description: Compound level in Red Blood Cells at 48 h, after Exposure of 10 mL of Blood to Compound solution by electronic spectroscopic method
Data set [6] is described as follows: in vitro. Particulars: human, whole blood; level measured in red blood cells. This is another data set of the same source.
Description: Compound level in Red Blood Cells at 48 h, after exposure of 10 mL of Blood to compound solution by HPLC method

Chain of Carbonic anhydrase 1 (P00915 whole entry): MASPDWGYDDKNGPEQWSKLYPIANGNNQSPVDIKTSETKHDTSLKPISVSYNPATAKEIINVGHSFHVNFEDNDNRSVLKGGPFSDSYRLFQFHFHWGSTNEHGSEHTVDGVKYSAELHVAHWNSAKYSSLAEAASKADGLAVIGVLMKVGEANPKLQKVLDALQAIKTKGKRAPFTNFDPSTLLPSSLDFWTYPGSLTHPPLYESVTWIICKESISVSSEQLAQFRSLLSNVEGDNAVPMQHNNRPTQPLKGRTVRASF
Description for Carbonic anhydrase 1: Inhibition constant against human (cloned) isozyme (hCA I) by the CO2 hydration method
Description for Carbonic anhydrase 2: Inhibition constant against human (cloned) isozyme (hCA II) by CO2 hydration method
Description for Carbonic anhydrase 9: Inhibition constant against human cloned isozyme (hCA IX) by CO2 hydration method

Regarding `NS(=O)(=O)c1ccc(CC/N=C(S)/N=C2/C=CC(=C3c4ccc(O)cc4Oc4cc(O)ccc43)C(C(=O)O)=C2)cc1`, on Carbonic anhydrase 1, the pKi (as a rule, the negative decadic logarithm of the Ki, by convention in mol/L) was 5.89.

In the case of `NS(=O)(=O)c1ccc(/N=C(S)/N=C2/C=CC(=C3c4ccc(O)cc4Oc4cc(O)ccc43)C(C(=O)O)=C2)c(Br)c1`, the pKi on Carbonic anhydrase 1 is 5.96; at Carbonic anhydrase 9, 7.46; at Carbonic anhydrase 2, 7.37.

`NS(=O)(=O)c1ccc(/N=C(S)/N=C2/C=CC(=C3c4ccc(O)cc4Oc4cc(O)ccc43)C(C(=O)O)=C2)c(I)c1`: the pKi is 5.97 on Carbonic anhydrase 1, 7.51 at Carbonic anhydrase 9 and 7.40 on Carbonic anhydrase 2.

As for `NS(=O)(=O)c1ccc(/N=C(S)/N=C2/C=CC(=C3c4ccc(O)cc4Oc4cc(O)ccc43)C(C(=O)O)=C2)c(F)c1`, the pKi at Carbonic anhydrase 1 was 6.01; on Carbonic anhydrase 9, 7.52.

With `Cc1cc(C)[n+](Cc2ccc(S(N)(=O)=O)cc2)cc1C.[O-][Cl+3]([O-])([O-])[O-]`, the concentration at 0.5 h was determined as 0.3 µM in the data set “in vitro [1]” and 0.5 µM in “in vitro [4]”. The concentration at 1 h in “in vitro [2]” was found to be 0.5 µM; in the data set “in vitro [3]”, 0.4 µM. Further, the pKi at Carbonic anhydrase 1 was 5.15; on Carbonic anhydrase 9, 7.42; at Carbonic anhydrase 2, 7.30. Besides, the concentration at 48 h came to 0.5 µM in “in vitro [5]” and 0.3 µM in the data set “in vitro [6]”.

With `NS(=O)(=O)c1ccc(/N=C(S)/N=C2/C=CC(=C3c4ccc(O)cc4Oc4cc(O)ccc43)C(C(=O)O)=C2)c(Cl)c1`, the pKi on Carbonic anhydrase 1 is 6.02; at Carbonic anhydrase 9, 7.49; on Carbonic anhydrase 2, 7.28.

As to `NS(=O)(=O)c1ccc(C/N=C(S)/N=C2/C=CC(=C3c4ccc(O)cc4Oc4cc(O)ccc43)C(C(=O)O)=C2)cc1`, the results for the pKi at Carbonic anhydrase 1 and at Carbonic anhydrase 9 were 5.84 and 7.59, respectively.

On to `NCCc1ccc(S(N)(=O)=O)cc1`, for which the concentration at 0.5 h in the data set “in vitro [1]” is 132 µM; in “in vitro [4]” it was 138 µM. Moreover, the values for the concentration at 1 h in the data set “in vitro [2]” and in the data set “in vitro [3]” were 165 µM and 162 µM, respectively. Moreover, the results for the concentration at 48 h in the data set “in vitro [5]” and in “in vitro [6]” were 168 µM and 167 µM, respectively.

In the case of `CC(=O)/N=c1/sc(S(N)(=O)=O)nn1C` [METHAZOLAMIDE], the concentration at 0.5 h in “in vitro [1]” stood at 170 µM; in the data set “in vitro [4]”, 169 µM. The concentration at 1 h in “in vitro [2]” and in the data set “in vitro [3]” was 168 µM throughout. The concentration at 48 h worked out at 169 µM in the data set “in vitro [5]” and 167 µM in the data set “in vitro [6]”.
